Test results from US9670227B2, “Thienopyrimidine derivatives, a process for their preparation and pharmaceutical compositions containing them” (LES LABORATOIRES SERVIER, priority 2013, dated 2017).
Read-outs that look alike come from different tables or passages of the source.

Key:
[1] = test system: H929 multiple myeloma tumour line; assay: In vitro cytotoxicity, Microculture Tetrazolium Assay; assay type: cell-based; conditions: H929 cells, 48 hours exposure, MTT, read-out: IC50 (μM) MTT H929
Protocol: The cytotoxicity studies were carried out on the H929 multiple myeloma tumour line.
The cells are distributed onto microplates and exposed to the test compounds for 48 hours.

Mcl-1 protein = Mcl-1 protein (UniProtKB primary accession number: Q07820) (Homo sapiens, UniProt Q07820); assay: Inhibition of Mcl-1 by fluorescence polarisation, Method 1; assay type: binding; conditions: read-out: IC50 (M) Mcl-1 FP
How it was run: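 Fluorescence polarisation competition with an 11-point compound dilution series (final DMSO 5%). Mcl-1 protein at 5 nM and fluorescein-labelled ligand at 1 nM (final) in 10 mM HEPES, 150 mM NaCl, 0.05% Tween 20, pH 7.4.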

[2] = fluorescence polarisation, Method 1, or Method 2
[3] = fluorescence polarisation test, Method 2 values are underlined in the patent (underlining not visible here)

Chain of Mcl-1 protein (Q07820 whole entry): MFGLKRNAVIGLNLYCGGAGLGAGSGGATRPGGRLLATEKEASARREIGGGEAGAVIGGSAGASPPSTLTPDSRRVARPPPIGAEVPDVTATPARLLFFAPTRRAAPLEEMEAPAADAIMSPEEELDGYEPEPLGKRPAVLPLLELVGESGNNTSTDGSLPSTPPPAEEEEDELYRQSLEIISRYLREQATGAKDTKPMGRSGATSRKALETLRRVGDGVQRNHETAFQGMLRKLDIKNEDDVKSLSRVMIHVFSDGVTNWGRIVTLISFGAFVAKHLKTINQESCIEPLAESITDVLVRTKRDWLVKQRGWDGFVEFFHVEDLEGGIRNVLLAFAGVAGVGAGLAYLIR

Row | IC50 (Mcl-1 protein; [2]) [M] | IC50 (Mcl-1 protein; [3]) [M] | SMILES | IC50 ([1]; Homo sapiens, NCI-H929, 48 h) [µM] | IC50 [1] [µM]
1 |  | 7.5e-09 | Cc1c(-c2c(-c3ccc(F)o3)sc3ncnc(OC(Cc4ccccc4OCc4cncnc4)C(=O)O)c23)ccc(OCCN2CCN(C)CC2)c1Cl [Example 190, (2R)-2-{[(5Sa)-5-{3-chloro-2-methyl-4-[2-(4-methylpiperazin-1-yl)ethoxy]phenyl}-6-(5-fluorofuran-2-yl)thieno[2,3-d]pyrimidin-4-yl]oxy}-3-[2-(pyrimidin-5-ylmethoxy)phenyl]propanoic acid] | 0.037 | 
2 |  | 1.1e-08 | Cc1c(-c2c(-c3ccc(F)cc3)sc3ncnc(OC(Cc4ccccc4OCc4cnccn4)C(=O)O)c23)ccc(OCC2CCN(C)C2)c1Cl [Example 145, (2R)-2-{[(5Sa)-5-{3-chloro-2-methyl-4-[(1-methylpyrrolidin-3-yl)methoxy]phenyl}-6-(4-fluorophenyl)thieno[2,3-d]pyrimidin-4-yl]oxy}-3-[2-(pyrazin-2-ylmethoxy)phenyl]propanoic acid] |  | 0.293
3 |  | 1.6e-08 | Cc1ncc(COc2ccccc2CC(Oc2ncnc3sc(-c4ccco4)c(-c4ccc(OCCN5CCN(C)CC5)c(Cl)c4C)c23)C(=O)O)cn1 [Example 271, (2R)-2-{[(5Sa)-5-{3-chloro-2-methyl-4-[2-(4-methylpiperazin-1-yl)ethoxy]phenyl}-6-(furan-2-yl)thieno[2,3-d]pyrimidin-4-yl]oxy}-3-{2-[(2-methylpyrimidin-5-yl)methoxy]phenyl}propanoic acid] | 0.197 | 
4 | 9e-08 |  | CC#Cc1sc2ncnc(OC(Cc3cccc4occc34)C(=O)O)c2c1-c1ccc(OCCN2CCN(C)CC2)c(Cl)c1C [Example 492, (2R)-3-(1-benzofuran-4-yl)-2-{[(5Sa)-5-{3-chloro-2-methyl-4-[2-(4-methylpiperazin-1-yl)ethoxy]phenyl}-6-(prop-1-yn-1-yl)thieno[2,3-d]pyrimidin-4-yl]oxy}propanoic acid] | 2.19 | 
5 |  | 7.7e-09 | COc1ncc(COc2ccccc2CC(Oc2ncnc3sc(-c4ccco4)c(-c4ccc(OCCN5CCN(C)CC5)c(Cl)c4C)c23)C(=O)O)cn1 [Example 274, (2R)-2-{[(5Sa)-5-{3-chloro-2-methyl-4-[2-(4-methylpiperazin-1-yl)ethoxy]phenyl}-6-(furan-2-yl)thieno[2,3-d]pyrimidin-4-yl]oxy}-3-{2-[(2-methoxypyrimidin-5-yl)methoxy]phenyl}propanoic acid] | 0.131 | 
6 | 4.1e-08 |  | COc1ccccc1CC(Oc1ncnc2sc(-c3cccc(N(C)C)c3)c(-c3ccc(OCCN4CCN(C)CC4)c(Cl)c3C)c12)C(=O)O [Example 552, (2R)-2-[((5Sa)-5-{3-chloro-2-methyl-4-[2-(4-methylpiperazin-1-yl)ethoxy]phenyl}-6-[3-(dimethylamino)phenyl]thieno[2,3-d]pyrimidin-4-yl)oxy]-3-(2-methoxyphenyl)propanoic acid] | 0.784 | 
7 | 2.7e-08 |  | COc1ccccc1CC(Oc1ncnc2sc(-c3cccc(OC)c3F)c(-c3ccc(OCCN4CCN(C)CC4)c(Cl)c3C)c12)C(=O)O [Example 561, (2R)-2-{[(5Sa)-5-{3-chloro-2-methyl-4-[2-(4-methylpiperazin-1-yl)ethoxy]phenyl}-6-(2-fluoro-3-methoxyphenyl)thieno[2,3-d]pyrimidin-4-yl]oxy}-3-(2-methoxyphenyl)propanoic acid] | 0.61 | 
8 |  | 8.6e-09 | COc1ccc(F)cc1CC(Oc1ncnc2sc(-c3ccco3)c(-c3ccc(OCCN4CCN(C)CC4)c(Cl)c3C)c12)C(=O)O [Example 345, (2R)-2-{[(5Sa)-5-{3-chloro-2-methyl-4-[2-(4-methylpiperazin-1-yl)ethoxy]phenyl}-6-(furan-2-yl)thieno[2,3-d]pyrimidin-4-yl]oxy}-3-(5-fluoro-2-methoxyphenyl)propanoic acid] | 0.322 | 
9 |  | 3.9e-09 | Cc1c(-c2c(-c3ccco3)sc3ncnc(OC(Cc4ccccc4OCc4ccnn4C4CCCC4)C(=O)O)c23)ccc(OCCN2CCN(C)CC2)c1Cl [Example 262, (2R)-2-{[(5Sa)-5-{3-chloro-2-methyl-4-[2-(4-methylpiperazin-1-yl)ethoxy]phenyl}-6-(furan-2-yl)thieno[2,3-d]pyrimidin-4-yl]oxy}-3-{2-[(1-cyclopentyl-1H-pyrazol-5-yl)methoxy]phenyl}propanoic acid] | 0.023 | 
10 |  | 8.9e-09 | COCCN1CCC(COc2ccc(-c3c(-c4ccco4)sc4ncnc(OC(Cc5ccccc5OC)C(=O)O)c34)c(C)c2Cl)C1 [Example 312, (2R)-2-{[(5Sa)-5-(3-chloro-4-{[1-(2-methoxyethyl)pyrrolidin-3-yl]methoxy}-2-methylphenyl)-6-(furan-2-yl)thieno[2,3-d]pyrimidin-4-yl]oxy}-3-(2-methoxyphenyl)propanoic acid] | 1 | 
11 | 5.6e-08 |  | CCc1sc2ncnc(OC(Cc3ccccc3)C(=O)O)c2c1-c1ccc(OCCn2ccnc2)c(Cl)c1C [Example 418, (2R)-2-[((5Sa)-5-{3-chloro-4-[2-(1H-imidazol-1-yl)ethoxy]-2-methylphenyl}-6-ethylthieno[2,3-d]pyrimidin-4-yl)oxy]-3-phenylpropanoic acid] | 13.3 | 
12 |  | 5e-09 | COc1ccccc1CC(Oc1ncnc2sc(-c3ccco3)c(-c3ccc(OCCN4CCN(CC(F)F)CC4)c(Cl)c3C)c12)C(=O)O [Example 328, (2R)-2-{[(5Sa)-5-(3-chloro-4-{2-[4-(2,2-difluoroethyl)piperazin-1-yl]ethoxy}-2-methylphenyl)-6-(furan-2-yl)thieno[2,3-d]pyrimidin-4-yl]oxy}-3-(2-methoxyphenyl)propanoic acid] | 3.03 | 

The remaining lines, values behind:

Row | SMILES | IC50 (Mcl-1 protein; [2]) [M] | IC50 (Mcl-1 protein; [3]) [M] | IC50 ([1]; Homo sapiens, NCI-H929, 48 h) [µM] | IC50 [1] [µM]
13 | COc1ccccc1CC(Oc1ncnc2sc(-c3cc(F)c(F)c(F)c3F)c(-c3ccc(OCCN4CCN(C)CC4)c(Cl)c3C)c12)C(=O)O [Example 525, (2R)-2-{[(5Sa)-5-{3-chloro-2-methyl-4-[2-(4-methylpiperazin-1-yl)ethoxy]phenyl}-6-(2,3,4,5-tetrafluorophenyl)thieno[2,3-d]pyrimidin-4-yl]oxy}-3-(2-methoxyphenyl)propanoic acid] | 3.3e-09 |  | 0.755 | 
14 | CCOCCOc1nccc(COc2ccccc2CC(Oc2ncnc3sc(-c4ccc(F)cc4)c(-c4ccc(OCCN5CCN(C)CC5)c(Cl)c4C)c23)C(=O)O)n1 [Example 64, (2R)-2-{[(5Sa)-5-{3-chloro-2-methyl-4-[2-(4-methylpiperazin-1-yl)ethoxy]phenyl}-6-(4-fluorophenyl)thieno[2,3-d]pyrimidin-4-yl]oxy}-3-(2-{[2-(2-ethoxyethoxy)pyrimidin-4-yl]methoxy}phenyl)propanoic acid] |  | 4.4e-09 | 0.018 | 
15 | COc1nccc(COc2ccccc2CC(Oc2ncnc3sc(-c4cccc(F)c4F)c(-c4ccc(OCCN5CCN(C)CC5)c(Cl)c4C)c23)C(=O)O)n1 [Example 703, (2R)-2-{[(5Sa)-5-{3-chloro-2-methyl-4-[2-(4-methylpiperazin-1-yl)ethoxy]phenyl}-6-(2,3-difluorophenyl)thieno[2,3-d]pyrimidin-4-yl]oxy}-3-{2-[(2-methoxypyrimidin-4-yl)methoxy]phenyl}propanoic acid] | 9.3e-09 |  | 0.03 | 
16 | COc1ccccc1CC(Oc1ncnc2sc(-c3ccco3)c(-c3ccc(OC4CN5CCC4CC5)c(Cl)c3C)c12)C(=O)O (single isomer, unassigned) [Example 308, (2R)-2-({(5Sa)-5-[4-((3R or S)-1-azabicyclo[2.2.2]oct-3-yloxy)-3-chloro-2-methylphenyl]-6-(furan-2-yl)thieno[2,3-d]pyrimidin-4-yl}oxy)-3-(2-methoxyphenyl)propanoic acid] |  | 5.9e-09 |  | 1.5
17 | Cc1c(-c2c(-c3ccc(F)cc3)sc3ncnc(OC(Cc4ccccc4OCc4ccnc(C(F)(F)F)c4)C(=O)O)c23)ccc(OCCN2CCN(C)CC2)c1Cl [Example 17, (2R)-2-{[(5Sa)-5-{3-chloro-2-methyl-4-[2-(4-methylpiperazin-1-yl)ethoxy]phenyl}-6-(4-fluorophenyl)thieno[2,3-d]pyrimidin-4-yl]oxy}-3-(2-{[2-(trifluoromethyl)pyridin-4-yl]methoxy}phenyl)propanoic acid] |  | 1.2e-08 | 0.062 | 
18 | COc1ccccc1-c1nccc(COc2ccccc2CC(Oc2ncnc3sc(-c4ccc(OCCN5CCOCC5)cc4)c(-c4ccc(OCCN5CCN(C)CC5)c(Cl)c4C)c23)C(=O)O)n1 (single isomer, unassigned) [Example 764] | 1.35e-09 |  | 0.019 | 
19 | COc1ccc(-c2nccc(COc3ccccc3CC(Oc3ncnc4sc(-c5ccc(F)cc5)c(-c5ccc(OCCN6CCN(C)CC6)c(Cl)c5C)c34)C(=O)O)n2)cc1 [Example 107, (2R)-2-{[(5Sa)-5-{3-chloro-2-methyl-4-[2-(4-methylpiperazin-1-yl)ethoxy]phenyl}-6-(4-fluorophenyl)thieno[2,3-d]pyrimidin-4-yl]oxy}-3-(2-{[2-(4-methoxyphenyl)pyrimidin-4-yl]methoxy}phenyl)propanoic acid] |  | 5.3e-09 | 0.007 | 
20 | Cc1c(-c2c(-c3ccc(F)cc3)sc3ncnc(OC(Cc4ccccc4OCc4ccnn4CC(F)(F)F)C(=O)O)c23)ccc(OCCN(C)C)c1Cl [Example 132, (2R)-2-{[(5Sa)-5-{3-chloro-4-[2-(dimethylamino)ethoxy]-2-methylphenyl}-6-(4-fluorophenyl)thieno[2,3-d]pyrimidin-4-yl]oxy}-3-(2-{[1-(2,2,2-trifluoroethyl)-1H-pyrazol-5-yl]methoxy}phenyl)propanoic acid] |  | 4.8e-09 | 0.102 | 
